Five molecules from patent publication EP3876933B1, “NEUTROPHIL INFLAMMATION INHIBITOR AND USES THEREOF” (Chang Gung University of Science and Technology, priority 2018, dated 2020) can be followed below.

By inhibition is commonly meant the relative decrease from the control value, in per cent.

Data set [1] relates to human neutrophils. Description: Superoxide anion (O2˙-) generation in fMLF/CB-activated human neutrophils (SOD-inhibitable ferricytochrome c reduction). The class given is cell-based. To be noted: for IC50 / inhibition at 10 µM: Neutrophil; for inhibition at 10 µM / Superoxide Anion Inhibition %: at 10 µM concentration. The protocol: (§1) Human neutrophils were obtained in lipopolysaccharide-free conditions by means of dextran sedimentation and Ficoll centrifugation.
O2˙^- production was determined based on the SOD-inhibitable reduction of ferricytochrome c. Briefly, neutrophils (6 × 10^5/mL) were treated with a candidate compound at 37 °C at various concentrations (0.001 to 10 µM) for 5 min after being supplementing with 0.5 mg/mL ferricytochrome c and 1 mM Ca^2+. Cells were then activated with fMLF (0.1 µM) for 10 min in the pre-process of cytochalasin B (CB, 1 µg/mL) for 3 min. Changes in absorbance with the reduction of ferricytochrome c at 550 nm were continuously monitored in a double-beam, six-cell positioner spectrophotometer with constant stirring (Hitachi U-3010, Tokyo, Japan). Calculations were based on the differences in the reactions with and without SOD (100 U ml^-1) divided by the extinction coefficient for the reduction of ferricytochrome c (ε = 21.1 mM^-1/10 mm).

Data set [2] relates to human neutrophils. Description: Elastase release in fMLF/CB-activated human neutrophils (Methoxysuccinyl-Ala-Ala-Pro-Val-p-nitroanilide substrate). Format: cell-based. The note with it: Neutrophil; for inhibition at 10 µM: at 10 µM concentration. The protocol: as §1
Methoxysuccinyl-Ala-Ala-Pro-Val-p-nitroanilide was employed as the elastase substrate for the determination of elastase release. Briefly, after supplementation with Methoxysuccinyl-Ala-Ala-Pro-Val-p-nitroanilide (100 µM), neutrophils (6 × 10^5/mL) were equilibrated at 37 °C for 2 min and incubated with a candidate compound at various concentrations for 5 min. Cells were then activated with fMLF (0.1 µM) for 10 min in the pre-process of CB (0.5 µg/mL) for 3 min, and changes in absorbance at 405 nm were continuously monitored to evaluate elastase release. Results are expressed as the percentage of elastase release in the drug-free control group, DMSO.

Data set [3] has as its system imiquimod-induced psoriasis. Description: Imiquimod-induced psoriasis-like skin inflammation in mice (phenotype, H&E, immunohistochemistry). The class given is in vivo, BALB/c mice. The note with it: 20 mg/kg intraperitoneal, 30 min before 5% IMQ cream, every day for 7 days. The protocol: (§2) Male BALB/c mice aged 7-8 weeks were purchased from BioLASCO (Taipei, Taiwan) and maintained in a room with 12 hr light/dark cycles. Standard laboratory chow and water were available ad libitum. All animal experimental procedures were performed in accordance with guidelines and approved by the Institutional Animal Care and Use Committee of Chang Gung University.
(§3) Male BALB/c mice aged 7-8 weeks were used for the development of the imiquimod-induced psoriatic-like plaque model. The dorsal skin of the mice were shaved and received a daily topical dose of 62.5 mg of 5% imiquimod (IMQ) cream (Aldara, MEDA Pharma, Sweden) with or without a test compound (e.g., HKI-4971) treatment by intraperitoneal injection for 7 consecutive days.
Tissue samples were fixed in 10% neutral buffered formalin and embedding in paraffin blocks. Sections of the samples were prepared at 5 µm thickness and stained with hematoxylin and eosin (H&E). For immunohistochemistry staining, the sections were incubated with primary antibodies against Ly6g, MPO, and ki67 then the secondary antibody was applied for the detection of the primary antibody according to the manufacturer's instructions of the SuperPicture Polymer Detection Kit (Thermo Fisher, USA). Finally, the section slides were subsequently stained with DAB chromogen and counterstained with hematoxylin. […]

Data set [4] can be described thus: Liver and kidney function (blood ALT, AST, BUN, creatinine) in imiquimod-induced mice. Format: in vivo, BALB/c mice. To be noted: HKI-4971 20 mg/kg intraperitoneal, alone or in combination with IMQ; n=3. The protocol:
as §3
In this example, the effect of HKI-4971 (or compound 13) on the development of psoriasis was investigated using the well-established psoriasis animal model, in which imiquimod (IMQ) was used to induce psoriasis-like skin inflammation. Briefly, BALB/c mice are pre-treated by intraperitoneal injection of HKI-4971 (20 mg/kg) for 30 min before 5% IMQ cream was topically administered onto the back of the mice every day for 7 days. Then, skin samples taken from these animals were subjected to microscopy examination and immunohistochemistry staining, while blood samples were subjected to analysis for liver and kidney functions. Results are depicted in FIGs 1 to 3.
Blood samples taken from IMQ- or IMQ+HKI-4971 treated animals were analyzed for the levels of alanine aminotransferase and aspartate transaminase, which were used as indicators for assessing liver function; and the levels of blood […] nitrogen (BUN) and creatinine (CRE), which were used as indicators for assessing the kidney function. […]

Data set [5] deals with LPS-induced ALI. Description: LPS-induced acute lung injury (ALI) in mice (lung MPO activity, H&E, immunohistochemistry). The note with it: 20 mg/Kg intravenous 1 hr before intratracheal LPS (2 mg/Kg), 5 hrs. Format: in vivo, BALB/c mice. The protocol:
as §2
Mice were pre-treated with a candidate compound (e.g., HKI-4971), which was dissolved in 50 µl saline solution containing 10% DMSO and 20% Kolliphor EL (Sigma-Aldrich, USA), by intravenous injection. […]
Lung tissues were homogenized in PBS (50 Mm, pH 6.0) containing 0.5% (w/v) hexadecyltrimethylammonium bromide (HETAB) (Sigma-Aldrich, USA) by using the MagNA Lyser Instrument (Roche, Germany), and was further centrifuged at 12,000 ×g for 20 min at 4°C to remove the insoluble material. The peroxidase activity was measured as the oxidation of o-Dianisidine dihydrochloride (Sigma-Aldrich, USA). […] The absorption was determined spectrophotometrically at 405 nm. […]
In this example, the Gram-negative bacterial endotoxin LPS induced ALI in mice was employed to mimic ARDS in human, and the effect of HKI-4971 was evaluated. […]

Where [6] appears, read: FMLP/CB-induced human neutrophils, mean ± S.E.M. (n = 3-5), read-out: Superoxide Anion IC50.
The mark [7] stands for this setting: FMLP/CB-induced human neutrophils, mean ± S.E.M. (n = 3-5).
[8] abbreviates: FMLP/CB-induced human neutrophils, mean ± S.E.M. (n = 3-5), read-out: Elastase Release IC50.

`Cn1nc(N)c2c(Nc3ccc(O)cc3)nc3ccccc3c21` [Compound 13, 4-(4-Hydroxyanilino)-1-methyl-1H-pyrazolo[4,3-c]quinolin-3-amine]: the IC50 in data set [1] (Homo sapiens, neutrophils in response to fMLF, Table 2, read-out: IC50 for suppressing the superoxide anion generation) is ~3.7 nM; in data set [1] (setting [6]), 3.69 ± 1.74 nM; in data set [2] (Homo sapiens, neutrophils in response to fMLF, Table 2, read-out: IC50 for suppressing elastase release), ~0.032 µM; in data set [2] (setting [8]), 0.0321 ± 0.0174 µM. In addition, the inhibition at 10 µM in data set [1] (setting [7]) is 88.1 ± 1.19%; in data set [2] (setting [7]), 105 ± 2.53%. In addition, the “markers for cell proliferation (ki-67) and for neutrophils (Ly6g and MPO), immunostaining of skin samples” value in data set [3] is listed as “reduced”. Also, the “severity or progression of IMQ-induced psoriasis” value in data set [3] is on record as “reduce the severity or progression”. For the same molecule, the “functions of liver or kidney (alanine aminotransferase, aspartate transaminase, BUN, CRE in blood)” value in data set [4] was “did not result in significant damage”. Besides, the “LPS-induced neutrophil infiltration and lung injury (H&E and neutrophil markers in lung sections)” value in data set [5] was “significantly alleviated”. Moreover, the “MPO activity in lung tissues” value in data set [5] (n=3) is “suppressed”.

Regarding `Nc1noc2c1c(Nc1ccc(C(F)(F)F)cc1)nc1ccccc12` [Compound 30, 4-(4-Trifluoromethylanilino)isoxazolo[4,5-c]quinolin-3-amine], the “Superoxide Anion Inhibition %” value in data set [1] (setting [7]) is “enhanced”. Also, the IC50 in data set [2] (setting [8]) worked out at 6.23 ± 0.52 µM. The inhibition at 10 µM in data set [2] (setting [7]) amounted to 81.5 ± 6.97%.

In the case of `Nc1noc2c1c(Nc1ccc(C(=O)O)cc1)nc1ccccc12` [Compound 31, 4-[(3-aminoisoxazolo[4,5-c]quinolin-4-yl)amino]benzoic acid], the IC50 in data set [1] (setting [6]) was > 10000 nM; in data set [2] (setting [8]) it was > 10 µM. The inhibition at 10 µM was 7.44 ± 4.23% in data set [1] (setting [7]) and -1.4 ± 3.53% in data set [2] (setting [7]).

For `Nc1noc2c1c(Nc1ccc(Cl)cc1)nc1ccccc12` [Compound 32, 4-(4-Chloroanilino)isoxazolo[4,5-c]quinolin-3-amine], the IC50 in data set [1] (setting [6]) was > 10000 nM; in data set [2] (setting [8]), > 10 µM. The figures for the inhibition at 10 µM in data set [1] (setting [7]) and in data set [2] (setting [7]) were 38.6 ± 2.3% and 3.69 ± 3.42%, respectively.

As to `Cc1ccc(Nc2nc3ccccc3c3onc(N)c23)cc1` [Compound 33, 4-(4-Methylanilino)isoxazolo[4,5-c]quinolin-3-amine], in data set [1] (setting [7]), the “Superoxide Anion Inhibition %” value is recorded as “enhanced”. The IC50 in data set [2] (setting [8]) was 7.24 ± 0.72 µM. Besides, in data set [2] (setting [7]), the inhibition at 10 µM was determined as 68 ± 5.23%.
